According to patent publication US6906069B1, “LXR modulators” (Amgen Inc., priority 1999, dated 2005):

target: T1, LXRα (Homo sapiens, UniProt Q13133); assay: cell-based GAL4-LXRα ligand-binding domain luciferase reporter screen for agonists; conditions: 10 μM compound; transfected 293 cells; relative to control (no additional compound) assigned a value of 1
T1 construct: expressed in transfected cells; host or cells: 293 cells
T1 sequence (Q13133 209-447 limits assumed): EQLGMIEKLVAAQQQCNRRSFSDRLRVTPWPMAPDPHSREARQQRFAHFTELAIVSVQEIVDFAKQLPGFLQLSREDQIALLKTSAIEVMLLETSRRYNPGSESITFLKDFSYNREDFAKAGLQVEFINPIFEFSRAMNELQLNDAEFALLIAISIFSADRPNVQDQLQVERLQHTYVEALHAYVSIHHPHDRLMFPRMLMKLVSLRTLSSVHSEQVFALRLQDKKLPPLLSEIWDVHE
Method: In order to identify agonists for LXRα, a cell-based high throughput screen was developed. Briefly, a DNA-binding domain of the nonreceptor transcription factor GAL4 was fused to the putative ligand-binding domain of LXRα. The resulting construct was introduced into 293 cells, together with an UAS-containing luciferase reporter construct. The transfected cells were then treated with the compounds and luciferase activity was measured. Individual compounds were evaluated relative to a control (no additional compound) at a concentration of 10 μM. Relative luciferase activity is provided below for five of the compounds described in the Examples above (luciferase activity of the control was assigned a value of 1).

With `CC(c1ccco1)N(C(=O)C12CC3CC(CC(C3)C1)C2)c1ccccc1` (centres unmarked) [Example 4] as the compound, how does the “Relative Activity (relative luciferase activity)” value (“Relative Activity” below) read?
Its value is 3.

How did the “Relative Activity” value turn out when `CC(c1ccccn1)N(C(=O)C1(C)CCCCC1)C(C)c1ccco1` (centres unmarked) [Example 5] was run?
Its value is “≧10”.

For `CC(c1ccco1)N(C(=O)C12CC3CC(CC(C3)C1)C2)c1ccccn1` (centres unmarked) [Example 1], which “Relative Activity” value is on record?
The value was 4.

Which “Relative Activity” value does the source give for `CC(c1ccco1)N(C(=O)C12CC3CC(CC(C3)C1)C2)c1cccnc1` (centres unmarked) [Example 2] here?
Its value is 5.

How did the “Relative Activity” value turn out when `CC(c1ccco1)N(C(=O)C12CC3CC(CC(C3)C1)C2)c1ccncc1` (centres unmarked) [Example 3] was run?
The value was “≧10”.
